These results are taken from PubChem BioAssay (NCI).

Where “and” joins values, the source holds several entries; their conditions need not be identical. Equal values may be shown once.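 Method: 48-hour compound exposure of cells in 96-well plates, five concentrations, linear interpolation of endpoints. GI50: concentration for 50% inhibition of growth. TGI is the concentration that stops growth completely.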

Holding throughout (experiment): NCI anticancer screen, dose series, 48 h
The subject of assay [1] is COLO 205 colon.
In assay [2] the test system is PC-3 prostate.
The subject of assay [3] is M14 melanoma.
For assay [4], the system named is HL-60(TB) leukemia.
Assay [5] concerns MALME-3M melanoma.
For assay [6], the system named is SF-295 CNS.
The test system of assay [7] is CCRF-CEM leukemia.
The test system of assay [8] is SK-MEL-2 melanoma.
The subject of assay [9] is UACC-257 melanoma.
Assay [10] has as its system T-47D breast.

Regarding `C1=C2CNCC3=Cc4ccc5ccccc5c4OC23Oc2c1ccc1ccccc21`, the GI50 is 2.09 µM in [1]; 3.5 µM in assay [2]; 2.17 µM in [3]; 2.69 µM in assay [4]; 12.5 µM in assay [5]; 3.07 µM in [6]. Besides, the GI50 in assay [7] was 3.65 µM; in assay [8], 5.47 µM; in [9], 12.6 µM; in [10] it was 8.28 µM. For the same compound, the TGI in assay [1] was determined as 4.23 µM; in assay [2] it was 18.2 µM; in assay [3], 5.08 µM; in assay [4] it was 7.68 µM; in [5], 38.5 µM; in assay [6], 15.6 µM. The TGI in assay [7] was greater than 100 µM; in assay [8], 22.8 µM; in assay [9] it was 38.7 µM; in [10], 23.2 µM.

Regarding `CCCCCCCCCCCCCCCCS(=O)(=O)c1ccc(NN)cc1`, the TGI is greater than 10 µM in assay [1]; greater than 10 µM in assay [2]; greater than 10 µM in assay [3]; 6.17 µM in assay [4]; greater than 10 µM in assay [5]; greater than 10 µM in assay [6]. In addition, the TGI is 4.34 µM in assay [7], greater than 10 µM in assay [8], greater than 10 µM in assay [9] and greater than 10 µM in assay [10].

Turning to `COc1ccc2cc(-c3c(-c4ccncc4)nc(-c4ccc(S(C)=O)cc4C)n3C)ccc2c1` (stereo not given), the GI50 in [1] is 14.8 µM; in [2], 15.9 µM; in [3], greater than 21.6 µM; in assay [4] it was 9.61 µM; in assay [5], 7.04 µM; in [6], 16.6 µM. For the same compound, the GI50 in assay [7] was greater than 25 µM; in [8], greater than 25 µM; in assay [9] it was 14.8 µM; in [10], 8.78 µM. Also, the TGI in assay [1], in [2], in assay [3], in [4], in [5] and in [6] was greater than 25 µM each time. Also, the TGI in [7], in [8], in assay [9] and in assay [10] was greater than 25 µM in each case.

As for `Cc1ccc(/C=C2\CNC/C(=C\c3ccc(C)cc3)C2=O)cc1`, the GI50 is 1.45 µM in assay [1]; 1.41 µM in [4]; 2.4 µM in [5]; 2.74 µM in assay [7]; 1.9 µM in assay [8]; 1.71 µM in assay [9]. For the same compound, the TGI in [1] is 2.78 µM and 7.3 µM; in [2] it was 13.2 µM; in assay [3] it was 11.2 µM; in assay [4] it was 6.46 µM and 2.53 µM; in [5], 6.37 µM and 38.5 µM; in [6], greater than 49.2 µM. Also, the TGI in assay [7] is 7.82 µM and 8.71 µM; in assay [9], 3.55 µM and 12.8 µM; in [10], greater than 24.8 µM.

For the compound `CCOCNc1ccc(N2C(=O)/C(=C/c3ccc(N(CC)CC)cc3)N=C2c2ccccc2)cc1`, the GI50 is 86.6 µM in [1]; 5.83 µM in assay [2]; greater than 100 µM in assay [3]; 25 µM in [4]; 24.8 µM in assay [5]; 9.8 µM in assay [6]. Besides, the GI50 is 3.55 µM in [7], 13.7 µM in assay [8], greater than 100 µM in assay [9] and 84 µM in [10]. In addition, the TGI in assay [1], in assay [2], in [3], in assay [4], in assay [5] and in assay [6] was greater than 100 µM each time. In addition, the TGI was greater than 100 µM in assay [7], 31 µM in [8], greater than 100 µM in [9] and greater than 100 µM in assay [10].

Take `O=C(O)C1C2C=CC(O2)C1C(=O)Nc1ncccn1` (stereo not given): the TGI in assay [1], in [2], in assay [3], in assay [4], in assay [5] and in assay [6] was greater than 100 µM each time. The TGI in [7], in assay [8], in [9] and in assay [10] was greater than 100 µM each time.

On to `C=CC(=O)Nc1cccc(Nc2nc(Nc3ccc(OCCOC(F)F)cc3)ncc2F)c1`, for which the GI50 was 4.17 µM in [1]; 4.01 µM in assay [2]; 2.54 µM in assay [3]; 2.02 µM in assay [4]; 2.49 µM in assay [5]; 6.04 µM in assay [6]. The GI50 is 5.17 µM in assay [7], 1.8 µM in assay [8], 5.56 µM in assay [9] and 1.83 µM in assay [10]. The TGI stood at 17.5 µM in assay [1]; 27.1 µM in [2]; 18.8 µM in [3]; 10.4 µM in assay [4]; 35.1 µM in [5]; 83.4 µM in [6]. The TGI in assay [7] was 94 µM; in [8], 6.82 µM; in assay [9], 47.5 µM; in [10] it was 9.98 µM.

`c1ccc(CC(NCCNC(Cc2ccccc2)c2ccccc2)c2ccccc2)cc1` (stereo not given): the GI50 in assay [1] was 0.191 µM; in assay [2], 0.409 µM; in [3] it was 0.302 µM; in assay [4], 0.322 µM; in assay [5], 0.339 µM; in assay [6], 0.372 µM. The GI50 is 0.49 µM in assay [7], 1.16 µM in [8], 1.02 µM in assay [9] and 0.243 µM in [10]. Moreover, the TGI in assay [1] worked out at 0.382 µM; in [2], 1.78 µM; in assay [3], 1.01 µM; in assay [4] it was 0.89 µM; in assay [5], 1.44 µM; in assay [6], 1.56 µM. In addition, the TGI in [7] was 2.57 µM; in assay [8], 2.57 µM; in [9] it was 2.4 µM; in assay [10], 0.693 µM.
